Assay results published in PubChem BioAssay (NCI).
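These data come from cells grown in 96-well plates and exposed to compound for 48 hours at five concentrations. GI50 = concentration required for 50% inhibition of growth. At the TGI there is no net growth.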

Legend:
Assay in all cases: NCI tumour cell line growth inhibition, 48 h
[1] = test system: CCRF-CEM leukemia
[2] = test system: UACC-62 melanoma
[3] = test system: M14 melanoma
[4] = test system: TK-10 renal
[5] = test system: DLD-1 colon
[6] = test system: RXF 393 renal
[7] = test system: HOP-62 NSCLC
[8] = test system: ACHN renal
[9] = test system: NCI-H460 lung
[10] = test system: KM20L2 colon
[11] = test system: MALME-3M melanoma
[12] = test system: HOP-18 NSCLC
[13] = test system: DMS 273 small cell lung

Structure (SMILES)	TGI [1]	TGI [2]	TGI [3]	TGI [4]	TGI [5]	TGI [6]	TGI [7]	TGI [8]	TGI [9]	TGI [10]	GI50 [1]	GI50 [11]	TGI [11]	GI50 [2]	GI50 [4]	GI50 [6]	GI50 [8]	GI50 [9]	TGI [12]	TGI [13]
Cc1cc(NS(=O)(=O)c2ccc(Nc3c4ccccc4nc4c(C(=O)NCCN(C)C)ccc(Cl)c34)cc2)no1	10.8 µM	10.4 µM	17.6 µM	27.1 µM	17 µM	22.8 µM	17.3 µM	12.3 µM	11.4 µM	24 µM										
COC(=O)C(C)N1C(=O)c2ccccc2I1OC(C)=O (stereo not given)	45.5 µM	> 100 µM		> 100 µM		> 100 µM		> 100 µM	> 100 µM		18.1 µM	16.8 µM	54 µM	23 µM	29.2 µM	32.3 µM	30.2 µM	> 100 µM		
COc1cc(N=Nc2cccc(S(=O)(=O)O)c2)c(C)cc1N=Nc1ccc(/C=C/c2ccc(N=[N+]([O-])c3ccc(/C=C/c4ccc(N=Nc5cc(C)c(N=Nc6cccc(S(=O)(=O)O)c6)cc5OC)cc4)c(S(=O)(=O)O)c3)cc2S(=O)(=O)O)cc1	> 100 µM	> 100 µM			> 100 µM	> 100 µM	> 100 µM		> 100 µM	> 100 µM			> 100 µM						> 100 µM	> 100 µM
O=CNc1cccc2c3c([nH]c12)CCCCCC3	> 100 µM	> 100 µM			> 100 µM	> 100 µM	> 100 µM		> 100 µM	> 100 µM			> 100 µM						> 100 µM	> 100 µM
CCOC(=O)C1C(c2cc(OC)c(O)c(OC)c2)c2cc3c(cc2OC1(C)O)OCO3 (stereo not given)	> 100 µM	> 100 µM	> 100 µM	> 100 µM	> 100 µM		> 100 µM	> 100 µM	> 100 µM	> 100 µM			> 100 µM						> 100 µM	> 100 µM
CC(C)(C)OC(=O)NC(Cc1ccccc1)C(=O)N[C@H]1c2ccsc2/C(=N/O)[C@H]1O (stereo not given in full)	> 100 µM	> 100 µM	> 100 µM	> 100 µM		> 100 µM	> 100 µM		> 100 µM				> 100 µM							
C=C1C(=O)O[C@H]2C1[C@H](OC(=O)/C(C)=C\COC(C)=O)C[C@]1(CO1)[C@@H]1[C@H](O)[C@H]3O[C@@]3(C)[C@@H]12 (stereo not given in full)	54.2 µM	30.4 µM			34.1 µM	32.9 µM	> 100 µM		> 100 µM	> 82.7 µM			38 µM						41.4 µM	> 63.2 µM
COc1ccc(C(=O)Cc2cc(OC)ccc2OC)cc1	> 100 µM	> 100 µM	> 100 µM	> 100 µM	> 100 µM	> 100 µM	> 100 µM	> 100 µM	> 100 µM	> 100 µM			> 100 µM						> 100 µM	> 100 µM
CC(C)=CCN(N=O)c1ncnc2nc[nH]c12	> 100 µM		> 100 µM	> 100 µM		> 100 µM	> 100 µM	> 100 µM	> 100 µM				> 100 µM							
